Experimental findings from patent US5077286A, “Beta-lactam derivatives of the 4-acylcephem sulphone and 3-acylpenam sulphone-type” (Farmitalia Carlo Erba S.r.l., priority 1988, dated 1991) are described below.

SMILES strings stand for the structures.

Broadly, the koff is the first-order rate constant of dissociation. One may read the kon as a measure of how fast the partners come together.

The target in data set [1] is T1, human leukocyte elastase (HLE) (Homo sapiens, UniProt P08246).
T1 construct: purchased Calbiochem Lot 702738
T1 sequence (P08246 30-267): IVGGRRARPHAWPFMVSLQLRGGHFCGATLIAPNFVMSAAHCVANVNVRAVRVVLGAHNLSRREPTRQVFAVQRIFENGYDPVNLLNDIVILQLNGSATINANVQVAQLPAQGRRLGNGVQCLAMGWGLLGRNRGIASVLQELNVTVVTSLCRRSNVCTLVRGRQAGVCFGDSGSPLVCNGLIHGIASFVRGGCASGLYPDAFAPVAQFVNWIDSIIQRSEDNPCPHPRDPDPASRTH
Put plainly: HLE-inhibition kinetic parameters (fluorescence, release of 7-amino-4-methylcoumarin from peptide substrate). It counts as biochemical. As to conditions: 37° C., 0.027M pH 7.4 phosphate buffer, 1% DMSO, 1% MeCN, NaCl (I=0.15); for Ki: read-out: HLE-inhibition kinetic parameters: Ki^ss (apparent dissociation constant of HLE-inhibitor complex at steady state); for koff: read-out: HLE-inhibition kinetic parameters: Koff (dissociation rate); for kon: read-out: HLE-inhibition kinetic parameters: Kon (rate of formation of the HLE complex). As to the method:
(b) Kinetic parameters of HLE (Calbiochem. Lot 702738) were determined at 37° C., 0.027M pH 7.4 phosphate buffer, 1% DMSO, 1% MeCN, NaCl (I=0.15), by monitoring the release of 7-amino-4-methylcoumarin (fluorence detection) from N-methoxysuccinyl-alanyl-propyl-valyl-7-amido-4-methylcoumarin as the substrate, according to the equations: [formula] wherein: [P], [I], [S]=product, inhibitor, and substrate concentration
Km=Michaelis constant for the enzyme-substrate pair (independently determined under the same experimental conditions).

Data set [2] in a line: Chemical stability at 37° C., 0.05M pH 7.4 phosphate buffer (HPLC, time course of starting material depletion). It counts as physicochemical. As to conditions: 0.05m phosphate buffer, 5% DMSO, 10 mM initial conc., read-out: Chemical stability t1/2 (converted). How it is done: (a) Chemical stability at 37° C., 0.05M pH 7.4 phosphate buffer (5% DMSO as solubilizing vehicle) was determined by following the time course of starting material depletion ([…] kinetics; 10 mM initial conc.) by HPLC analysis (stationary phase Whatman Partisphere 5 C18, 110×4.7 mm i.d., mobile phase A, pH 2.5 0.1M phosphate buffer; mobile phase B, 60:40 phase A/MeCN; UV detection at λ=254 nm;

With `CO[C@H]1C(=O)N2C(C(=O)C(C)(C)C)=C(COC(C)=O)CS(=O)(=O)[C@H]12` [Compound 51, 3-Acetoxymethyl-4-tert-butylcarbonyl-(7α)-methoxy-3-cephem 1,1-dioxide], in data set [1], the Ki was found to be 11 nM, the koff came to 0.0026 s⁻¹ and the kon came out at 20000 M⁻¹ s⁻¹. The half-life at 10000 µM in data set [2] was 19.3 h.
As to `CO[C@H]1C(=O)N2C(C(=O)OC(C)(C)C)=C(COC(C)=O)CS(=O)(=O)[C@H]12` [Reference], in data set [1], the Ki stood at 18.4 nM, the off-rate constant (koff) was found to be 0.0035 s⁻¹ and the kon turned out to be 9000 M⁻¹ s⁻¹. Further, the half-life at 10000 µM in data set [2] is 3.2 h.
